Reference: ChEMBL document CHEMBL1201861, “Genomics of Drug Sensitity in Cancer screening data, Wellcome Trust Sanger Institute”

Key:
Test in all cases: cells
Details in all cases: Homo sapiens
TE-6 = assay type: functional, cell-based;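 also: growth inhibition of TE-6 cells, read out with a cell viability assay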
Description: SANGER: Inhibition of human TE-6 cell growth in a cell viability assay.

NCI-H1304 = assay type: functional, cell-based;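 also: growth inhibition of the cancer cell line, measured in a cell viability assay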
Description: SANGER: Inhibition of human NCI-H1304 cell growth in a cell viability assay.

C8166 = assay type: functional, cell-based;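 also: growth inhibition of human C8166 cells measured by a cell viability assay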
Description: SANGER: Inhibition of human C8166 cell growth in a cell viability assay.

SK-UT-1 = assay type: functional, cell-based;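 also: growth inhibition of SK-UT-1 cells, measured by a cell viability assay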
Description: SANGER: Inhibition of human SK-UT-1 cell growth in a cell viability assay.

MIA PaCa-2 = assay type: functional, cell-based;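 also: growth inhibition of MIA PaCa-2 cells, read out with a cell viability assay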
Description: SANGER: Inhibition of human MIA-PaCa-2 cell growth in a cell viability assay.

FTC-133 = assay type: functional, cell-based
OVCAR-5 = assay type: functional, cell-based;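 also: growth inhibition of human OVCAR-5 cells, read out with a cell viability assay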
Description: SANGER: Inhibition of human OVCAR-5 cell growth in a cell viability assay.

no-10 = assay type: functional, cell-based;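 also: growth inhibition of no-10 cells, read out with a cell viability assay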
Description: SANGER: Inhibition of human no-10 cell growth in a cell viability assay.

COLO-741 = assay type: functional, cell-based
Description: SANGER: Inhibition of human COLO-741 cell growth in a cell viability assay.

ML-2 = assay type: functional, cell-based;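 also: growth inhibition of ML-2 cells, measured with a cell viability readout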
Description: SANGER: Inhibition of human ML-2 cell growth in a cell viability assay.

HCE-T = assay type: functional, cell-based;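 also: cell viability assay read-out, reporting inhibition of HCE-T cell growth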
Description: SANGER: Inhibition of human HCE-T cell growth in a cell viability assay.

DMS-79 = assay type: functional, cell-based;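 also: growth inhibition measured with a cell viability assay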
Description: SANGER: Inhibition of human DMS-79 cell growth in a cell viability assay.

COLO-824 = assay type: functional, cell-based
Description: SANGER: Inhibition of human COLO-824 cell growth in a cell viability assay.

NB5 = assay type: functional, cell-based;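 also: growth inhibition of NB5 cells, read out as cell viability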
Description: SANGER: Inhibition of human NB5 cell growth in a cell viability assay.

KE-37 = assay type: functional, cell-based;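 also: growth inhibition of KE-37 cells, read out with a cell viability assay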
Description: SANGER: Inhibition of human KE-37 cell growth in a cell viability assay.

SK-MEL-1 = assay type: functional, cell-based;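 also: growth inhibition of human SK-MEL-1 cells, read out by a cell viability assay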
Description: SANGER: Inhibition of human SK-MEL-1 cell growth in a cell viability assay.

SW 954 = assay type: functional, cell-based;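 also: growth inhibition of SW954 human cancer cells, read out as cell viability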
Description: SANGER: Inhibition of human SW954 cell growth in a cell viability assay.

BFTC-909 = assay type: functional, cell-based
Description: SANGER: Inhibition of human BFTC-909 cell growth in a cell viability assay.

KURAMOCHI = assay type: functional, cell-based;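 also: growth inhibition of KURAMOCHI cells, read out with a cell viability assay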
Description: SANGER: Inhibition of human KURAMOCHI cell growth in a cell viability assay.

LU-139 = assay type: functional, cell-based
Description: SANGER: Inhibition of human LU-139 cell growth in a cell viability assay.

OCI-AML2 = assay type: functional, cell-based;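 also: growth inhibition of OCI-AML2 cells, read out with a cell viability assay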
Description: SANGER: Inhibition of human OCI-AML2 cell growth in a cell viability assay.

EW-13 = assay type: functional, cell-based;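 also: growth inhibition of EW-13 cells, read out with a cell viability assay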
Description: SANGER: Inhibition of human EW-13 cell growth in a cell viability assay.

MZ1-PC = assay type: functional, cell-based;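 also: cell viability assay measuring growth inhibition of human MZ1-PC cells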
Description: SANGER: Inhibition of human MZ1-PC cell growth in a cell viability assay.

CCRF-CEM = assay type: functional, cell-based;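 also: inhibition of CCRF-CEM cell growth, measured by a cell viability assay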
Description: SANGER: Inhibition of human CCRF-CEM cell growth in a cell viability assay.

no-11 = assay type: functional, cell-based;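 also: growth inhibition of human NO-11 cells, read out with a cell viability assay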
Description: SANGER: Inhibition of human no-11 cell growth in a cell viability assay.

ATN-1 = assay type: functional, cell-based;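 also: growth inhibition of human ATN-1 cells, read out with a cell viability assay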
Description: SANGER: Inhibition of human ATN-1 cell growth in a cell viability assay.

NCI-H446 = assay type: functional, cell-based;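 also: growth inhibition of NCI-H446 cells determined by a cell viability assay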
Description: SANGER: Inhibition of human NCI-H446 cell growth in a cell viability assay.

SF-268 = assay type: functional, cell-based;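 also: growth inhibition of SF-268 cells determined with a cell viability assay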
Description: SANGER: Inhibition of human SF268 cell growth in a cell viability assay.

BT-474 = assay type: functional, cell-based
Description: SANGER: Inhibition of human BT-474 cell growth in a cell viability assay.

RS4-11 = assay type: functional, cell-based;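 also: growth inhibition of RS4-11 cells, read out by a cell viability assay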
Description: SANGER: Inhibition of human RS4-11 cell growth in a cell viability assay.

C2BBe1 = assay type: functional, cell-based;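 also: growth inhibition of C2BBe1 cells, read out through a viability assay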
Description: SANGER: Inhibition of human C2BBe1 cell growth in a cell viability assay.

LNCaP-Clone-FGC = assay type: functional, cell-based
Description: SANGER: Inhibition of human LNCaP-Clone-FGC cell growth in a cell viability assay.

ETK-1 = assay type: functional, cell-based;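 also: growth inhibition of human ETK-1 cells, read out with a cell viability assay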
Description: SANGER: Inhibition of human ETK-1 cell growth in a cell viability assay.

OS-RC-2 = assay type: functional, cell-based;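 also: growth inhibition of human OS-RC-2 cells, measured by a cell viability assay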
Description: SANGER: Inhibition of human OS-RC-2 cell growth in a cell viability assay.

AGS = assay type: functional, cell-based;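 also: growth inhibition of AGS cells, determined with a cell viability assay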
Description: SANGER: Inhibition of human AGS cell growth in a cell viability assay.

VA-ES-BJ = assay type: functional, cell-based;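 also: growth inhibition of the VA-ES-BJ cell line, read out by a cell viability assay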
Description: SANGER: Inhibition of human VA-ES-BJ cell growth in a cell viability assay.

EW-24 = assay type: functional, cell-based;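 also: human EW-24 cancer cell line, growth inhibition read out via a cell viability assay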
Description: SANGER: Inhibition of human EW-24 cell growth in a cell viability assay.

ES4 = assay type: functional, cell-based;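 also: growth inhibition of human ES4 cells, read out by a cell viability assay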
Description: SANGER: Inhibition of human ES4 cell growth in a cell viability assay.

HT1197 = assay type: functional, cell-based, HT-1197
Description: SANGER: Inhibition of human HT-1197 cell growth in a cell viability assay.

MN-60 = assay type: functional, cell-based;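 also: growth inhibition of the MN-60 cell line, determined with a cell viability assay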
Description: SANGER: Inhibition of human MN-60 cell growth in a cell viability assay.

HEL = assay type: functional, cell-based;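 also: growth inhibition of HEL cells, read out with a cell viability assay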
Description: SANGER: Inhibition of human HEL cell growth in a cell viability assay.

EB-3 = assay type: functional, cell-based;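 also: human EB-3 cells, growth inhibition read out via a cell viability assay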
Description: SANGER: Inhibition of human EB-3 cell growth in a cell viability assay.

SNU-5 = assay type: functional, cell-based;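 also: cell viability readout used to measure growth inhibition in human NCI-SNU-5 cells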
Description: SANGER: Inhibition of human NCI-SNU-5 cell growth in a cell viability assay.

NCI-H1299 = assay type: functional, cell-based;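 also: growth inhibition of human NCI-H1299 cells, read out by a cell viability assay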
Description: SANGER: Inhibition of human NCI-H1299 cell growth in a cell viability assay.

LS-513 = assay type: functional, cell-based
Description: SANGER: Inhibition of human LS-513 cell growth in a cell viability assay.

LS-123 = assay type: functional, cell-based
Description: SANGER: Inhibition of human LS-123 cell growth in a cell viability assay.

A498 = assay type: functional, cell-based;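 also: growth inhibition of human A498 cells, read out with a cell viability assay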
Description: SANGER: Inhibition of human A498 cell growth in a cell viability assay.

EW-11 = assay type: functional, cell-based;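 also: growth inhibition of human EW-11 cells, measured with a cell viability assay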
Description: SANGER: Inhibition of human EW-11 cell growth in a cell viability assay.

KYSE-150 cell line = assay type: functional, cell-based;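 also: growth inhibition of human KYSE-150 cells, read out with a cell viability assay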
Description: SANGER: Inhibition of human KYSE-150 cell growth in a cell viability assay.

SK-OV-3 = assay type: functional, cell-based;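 also: growth inhibition of SK-OV-3 human cells, read out with a cell viability assay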
Description: SANGER: Inhibition of human SK-OV-3 cell growth in a cell viability assay.

EW-3 = assay type: functional, cell-based;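 also: cell viability assay read-out, IC50 reflects inhibition of growth of the EW-3 cells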
Description: SANGER: Inhibition of human EW-3 cell growth in a cell viability assay.

NOMO-1 = assay type: functional, cell-based;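 also: growth inhibition of human NOMO-1 cells measured by a cell viability assay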
Description: SANGER: Inhibition of human NOMO-1 cell growth in a cell viability assay.

MFH-ino = assay type: functional, cell-based;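 also: growth inhibition of human MFH-ino cells, read out by a cell viability assay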
Description: SANGER: Inhibition of human MFH-ino cell growth in a cell viability assay.

MKN-1 = assay type: functional, cell-based;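 also: growth inhibition of human MKN1 cells, read out by a cell viability measurement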
Description: SANGER: Inhibition of human MKN1 cell growth in a cell viability assay.

DU-4475 = assay type: functional, cell-based
Description: SANGER: Inhibition of human DU-4475 cell growth in a cell viability assay.

OMC-1 = assay type: functional, cell-based;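 also: growth inhibition of the OMC-1 cell line, measured by a cell viability assay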
Description: SANGER: Inhibition of human OMC-1 cell growth in a cell viability assay.

MPP-89 = assay type: functional, cell-based;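 also: growth inhibition of human MPP-89 cells, read out with a cell viability assay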
Description: SANGER: Inhibition of human MPP-89 cell growth in a cell viability assay.

GI-1 = assay type: functional, cell-based
Description: SANGER: Inhibition of human GI-1 cell growth in a cell viability assay.

ES6 = assay type: functional, cell-based;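 also: growth inhibition of human ES6 cells, read out with a cell viability assay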
Description: SANGER: Inhibition of human ES6 cell growth in a cell viability assay.

LB373-MEL-D = assay type: functional, cell-based;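 also: growth inhibition of the cell line, read out in a cell viability assay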
Description: SANGER: Inhibition of human LB373-MEL-D cell growth in a cell viability assay.

TK-10 = assay type: functional, cell-based;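 also: growth inhibition of TK-10 cells, read out in a cell viability assay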
Description: SANGER: Inhibition of human TK10 cell growth in a cell viability assay.

EC-GI-10 = assay type: functional, cell-based
Description: SANGER: Inhibition of human EC-GI-10 cell growth in a cell viability assay.

NCI-H1648 = assay type: functional, cell-based;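 also: cell viability assay measuring inhibition of NCI-H1648 cell growth, from the Sanger screening data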
Description: SANGER: Inhibition of human NCI-H1648 cell growth in a cell viability assay.

MeWo = assay type: functional, cell-based
Description: SANGER: Inhibition of human Mewo cell growth in a cell viability assay.

EW-16 = assay type: functional, cell-based
Description: SANGER: Inhibition of human EW-16 cell growth in a cell viability assay.

BB49-HNC = assay type: functional, cell-based
Description: SANGER: Inhibition of human BB49-HNC cell growth in a cell viability assay.

SMILES: CC(C)=CC[C@@H](O)C1=CC(=O)c2c(O)ccc(O)c2C1=O [SHIKONIN]
- IC50 (TE-6): 2970 nM
- IC50 (NCI-H1304): > 16000 nM
- IC50 (C8166): 408 nM
- IC50 (SK-UT-1): < 62.5 nM
- IC50 (MIA PaCa-2): 276 nM
- IC50 (FTC-133): 5740 nM
- IC50 (OVCAR-5): 1120 nM
- IC50 (no-10): 290 nM
- IC50 (COLO-741): 2690 nM
- IC50 (ML-2): 618 nM
- IC50 (HCE-T): 720 nM
- IC50 (DMS-79): > 16000 nM
- IC50 (COLO-824): 715 nM
- IC50 (NB5): 2430 nM
- IC50 (KE-37): 244 nM
- IC50 (SK-MEL-1): > 16000 nM
- IC50 (SW 954): 467 nM
- IC50 (BFTC-909): 3630 nM
- IC50 (KURAMOCHI): 3160 nM
- IC50 (LU-139): 6260 nM
- IC50 (OCI-AML2): 298 nM
- IC50 (EW-13): 267 nM
- IC50 (MZ1-PC): 19.3 nM
- IC50 (CCRF-CEM): 567 nM
- IC50 (no-11): 805 nM
- IC50 (ATN-1): 849 nM
- IC50 (NCI-H446): > 16000 nM
- IC50 (SF-268): 5580 nM
- IC50 (BT-474): 208 nM
- IC50 (RS4-11): 417 nM
- IC50 (C2BBe1): 756 nM
- IC50 (LNCaP-Clone-FGC): > 16000 nM
- IC50 (ETK-1): 2450 nM
- IC50 (OS-RC-2): 314 nM
- IC50 (AGS): 613 nM
- IC50 (VA-ES-BJ): 401 nM
- IC50 (EW-24): 14600 nM
- IC50 (ES4): 4630 nM
- IC50 (HT1197): 276 nM
- IC50 (MN-60): 348 nM
- IC50 (HEL): 2040 nM
- IC50 (EB-3): 1140 nM
- IC50 (SNU-5): 9540 nM
- IC50 (NCI-H1299): 1070 nM
- IC50 (LS-513): 1480 nM
- IC50 (LS-123): 538 nM
- IC50 (A498): 81.9 nM
- IC50 (EW-11): 447 nM
- IC50 (KYSE-150 cell line): 902 nM
- IC50 (SK-OV-3): 1560 nM
- IC50 (EW-3): 722 nM
- IC50 (NOMO-1): 1160 nM
- IC50 (MFH-ino): 864 nM
- IC50 (MKN-1): 236 nM
- IC50 (DU-4475): 180 nM
- IC50 (OMC-1): 1750 nM
- IC50 (MPP-89): 857 nM
- IC50 (GI-1): 568 nM
- IC50 (ES6): 7880 nM
- IC50 (LB373-MEL-D): 391 nM
- IC50 (TK-10): 1220 nM
- IC50 (EC-GI-10): > 16000 nM
- IC50 (NCI-H1648): 11100 nM
- IC50 (MeWo): 517 nM
- IC50 (EW-16): 299 nM
- IC50 (BB49-HNC): > 16000 nM

SMILES: C/C=C(/C)C(=O)O[C@H]1C(C)=C2[C@H]([C@@H]1OC(=O)CCCCCCC)[C@@](C)(OC(C)=O)C[C@H](OC(=O)CCC)[C@@]1(O)[C@H]2OC(=O)[C@@]1(C)O [THAPSIGARGIN]
- IC50 (TE-6): 17.8 nM
- IC50 (NCI-H1304): 59.1 nM
- IC50 (C8166): 188 nM
- IC50 (SK-UT-1): 23.3 nM
- IC50 (MIA PaCa-2): 3.3 nM
- IC50 (FTC-133): > 512 nM
- IC50 (OVCAR-5): < 2 nM
- IC50 (no-10): > 512 nM
- IC50 (COLO-741): 10.9 nM
- IC50 (ML-2): 53.9 nM
- IC50 (HCE-T): 36.3 nM
- IC50 (DMS-79): > 512 nM
- IC50 (COLO-824): 64.6 nM
- IC50 (NB5): 66.6 nM
- IC50 (KE-37): 7.53 nM
- IC50 (SK-MEL-1): > 512 nM
- IC50 (SW 954): 15.6 nM
- IC50 (BFTC-909): 0.968 nM
- IC50 (KURAMOCHI): 5.44 nM
- IC50 (LU-139): 33.6 nM
- IC50 (OCI-AML2): 8.04 nM
- IC50 (EW-13): 2.31 nM
- IC50 (MZ1-PC): < 2 nM
- IC50 (CCRF-CEM): 30.9 nM
- IC50 (no-11): 58.9 nM
- IC50 (ATN-1): 32 nM
- IC50 (NCI-H446): 35.4 nM
- IC50 (SF-268): 2.26 nM
- IC50 (BT-474): 210 nM
- IC50 (RS4-11): 1.3 nM
- IC50 (C2BBe1): 29.3 nM
- IC50 (LNCaP-Clone-FGC): 32.2 nM
- IC50 (ETK-1): < 2 nM
- IC50 (OS-RC-2): 24.3 nM
- IC50 (AGS): 8.78 nM
- IC50 (VA-ES-BJ): 18.2 nM
- IC50 (EW-24): 149 nM
- IC50 (ES4): < 2 nM
- IC50 (HT1197): > 512 nM
- IC50 (MN-60): 69.2 nM
- IC50 (HEL): 46.3 nM
- IC50 (EB-3): 19 nM
- IC50 (SNU-5): 91.4 nM
- IC50 (NCI-H1299): 0.879 nM
- IC50 (LS-513): 154 nM
- IC50 (LS-123): 6.23 nM
- IC50 (A498): > 512 nM
- IC50 (EW-11): 54.8 nM
- IC50 (KYSE-150 cell line): 22.2 nM
- IC50 (SK-OV-3): 2.64 nM
- IC50 (EW-3): 118 nM
- IC50 (NOMO-1): > 512 nM
- IC50 (MFH-ino): 1.32 nM
- IC50 (MKN-1): 47.4 nM
- IC50 (DU-4475): 5.97 nM
- IC50 (OMC-1): 83 nM
- IC50 (MPP-89): 20 nM
- IC50 (GI-1): 0.549 nM
- IC50 (ES6): < 2 nM
- IC50 (LB373-MEL-D): 29.1 nM
- IC50 (TK-10): 22.7 nM
- IC50 (EC-GI-10): 355 nM
- IC50 (NCI-H1648): 1.44 nM
- IC50 (MeWo): > 512 nM
- IC50 (EW-16): 0.598 nM
- IC50 (BB49-HNC): > 512 nM
